Test results published in patent US12600696B2 (XENIOPRO GMBH, priority 2017, dated 2026).

Key:
Assay type in all cases: cell-based
[1] = system: CAL-27 cells (human tongue squamous cell carcinoma cells); test: alamarBlue proliferation assay with CAL-27 cells; details: Homo sapiens, 120 h, 20 μM, 5 days, relative to DMSO baseline level of 1.0, read-out: AVEw, weighted arithmetic mean of normalized fluorescence intensity values (Activity Range), CAL-27 proliferation
Outline: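 CAL-27 cells seeded at 2000 per well, exposed to compound in 0.1% DMSO for 5 days, then alamarBlue fluorescence (ex 560/em 590 nm). Values normalized to DMSO wells (1.0) as weighted means with combined standard deviation; growth inhibition judged at 20 μM reference concentration.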

[2] = system: HL-60 cells (human acute myeloid leukemia cells); test: alamarBlue proliferation assay with HL-60 cells; details: 120 h, 5 days, relative to DMSO baseline level of 1.0, read-out: AVEw, weighted arithmetic mean of normalized fluorescence intensity values (Activity Range), HL-60 proliferation
Outline: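 HL-60 cells (1000/well, RPMI 1640 + 10% FBS) exposed to compound in 0.1% DMSO for 5 days, then alamarBlue fluorescence read (ex 560/em 590 nm). Signals normalized to six DMSO wells per plate (baseline 1.0); outliers removed by Peirce/Chauvenet; weighted mean with combined SD; inhibitor criterion judged at 20 μM reference concentration.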

[3] = system: TT cells (human medullary thyroid carcinoma cells); test: alamarBlue proliferation assay with TT cells; details: Homo sapiens, 120 h, 40 μM, relative to DMSO basis level 1.0, read-out: weighted arithmetic mean (AVEw) of normalized fluorescence intensity, activity range
Method: (§1) The antiproliferative activities of compounds falling under formula I, formula II, formula III, formula IV and formula V were investigated on cells or cell lines originating from a disorder of the myeloid cell compartment, the neuroendocrine system, the cervix, and the mucosal epithelium, as well as from the skin epithelium. To this end, HL-60 cells, TT cells, HeLa cells, CAL-27 cells and human primary epidermal keratinocytes (HPEK) were seeded into 96-well plates suitable for fluorescence assays (CORNING #3598) at following initial cell numbers: 1000 cells per well for HL-60; 9000 cells per well for TT; 2000 cells per well for HeLa, 2000 cells per well for CAL-27, 2000 cells per well for HPEK. The cells were treated with compounds at indicated final concentrations (diluted from the 1000× stock-solutions in DMSO to a final DMSO concentration of 0.1% v/v) or with the empty carrier DMSO at 0.1% v/v as control for 5 days. At day 5 after starting the treatments the cells were subjected to the alamarBlue® Proliferation Assay (Bio-Rad Serotec GmbH, BUF012B) according to the protocol of the manufacturer. The readout was taken with a multi-well plate-reader in the fluorescence mode with applying a filter for excitation at 560 nm (band width 10 nm) and for emission at 590 nm (band width 10 nm). Resveratrol (RES) treatment was included as control for growth inhibition.
(§2) The assays were performed in duplicate or more replicates of independent single experiments each containing a six-fold replicate for every condition. For every individual plate, the measured fluorescence intensity values of the conditions with compound treatment were normalized against the corresponding equally weighted arithmetic mean of the fluorescence intensity values of the six DMSO treated control wells in order to obtain the relative values to a baseline level of 1.0. The statistical calculations were performed in analogy to the luciferase assay as described above. To this end, two independent outlier analyses were performed according to the methods by Peirce and Chauvenet (Ross, Journal of Engineering Technology 2003, 1-12). Outliers confirmed by at least one of the methods were excluded from the calculations but not more than one value out of six per compound within a single experiment. The weighted arithmetic mean AVEw for each compound was calculated from the normalized values over all independent replicates of the single experiments comprising the six replicates each. The corresponding standard deviation for the weighted arithmetic mean was calculated according to the method described by Bronstein et al. (Bronstein, Semendjajew, Musiol, Mühlig, Taschenbuch der Mathematik, 5th edition 2001 (German), publisher: Verlag Harri Deutsch, Frankfurt am Main and Thun) and was combined with the Gauß′ error propagation associated with the performed calculation for the normalization. The resulting standard deviation is herein referred to as “combined standard deviation”.
TT cells were cultivated according to the protocol of the provider in F-12K medium (Fisherscientific, #11580556, or ATCC, #ATCC-30-2004) containing 10% fetal bovine serum (Fisherscientific, #15517589).
(§3) A compound is considered as a growth inhibitor of TT cells, if—at a reference concentration of 40 μM—the weighted arithmetic mean of the normalized fluorescence intensity values after addition of the corresponding combined standard deviation amounts to 0.9 or lower, in particular to 0.8 or lower, 0.7 or lower, 0.6 or lower, 0.4 or lower, and 0.2 or lower, relative to the overall basis level of 1.0. The overall basis level was calculated as the weighted arithmetic mean of all normalized values from the DMSO control measurements in analogy to the calculations performed for the test-compounds. The corresponding combined standard deviation for the DMSO values amounts to less than 1·10^−2.

[4] = system: HPEKp cells (human epidermal keratinocyte progenitors, pooled); test: alamarBlue proliferation assay with HPEKp cells; details: 120 h, relative to DMSO basis level 1.0, read-out: weighted arithmetic mean (AVEw) of normalized fluorescence intensity, activity range
Method: as §1, §2
HPEKp cells were cultivated according to the protocol of the provider in CnT-Prime epithelial culture medium (CELLnTEC, #CnT-PR, a fully defined, low calcium formulation, completely free of animal or human-derived components) without addition of further components.
as §3, with “HPEKp” for “TT”, “10” for “40”

[5] = system: BHY cells (human oral squamous cell carcinoma cells); test: alamarBlue proliferation assay with BHY cells; details: 72 h, 3 days treatment, single assay (preliminary), relative to DMSO basis level 1.0, read-out: equally weighted arithmetic mean (AVE) of six normalized fluorescence intensity values, activity range (RES: AVEw)
Method: Compounds were tested on BHY cells using the alamarBlue® proliferation assay in analogy to the above described method with seeding the cells at an initial number of 4000 cells per 96-well and a duration of treatment with compounds for 3 days.
BHY cells were cultivated according to the protocol of the provider (but at 5% instead of 10% CO2) in DMEM medium (Fisherscientific, #11584456) containing 10% fetal bovine serum (Fisherscientific, #15517589).
A compound is considered as a growth inhibitor of BHY cells, if—at a reference concentration of 40 μM—the equally weighted arithmetic mean (AVE) of the six normalized fluorescence intensity values after addition of the corresponding standard deviation amounts to 0.9 or lower, in particular to 0.8 or lower, 0.7 or lower, 0.6 or lower, 0.4 or lower, and 0.2 or lower, relative to the overall basis level of 1.0. The overall basis level was calculated as the weighted arithmetic mean (AVEw) of all normalized values from the DMSO control measurements. The corresponding combined standard deviation for the DMSO values amounts to less than 1·10^−2. The corresponding standard deviations for the tested compounds were calculated including the Gauß′ error propagation associated with the performed calculation for the normalization. The weighted arithmetic mean (AVEw) and the combined standard deviation for RES was calculated in analogy to DMSO. Outlier analyses were performed as described above.

| Compound | activity at 20 µM [1] [%] | activity at 20 µM [2] [%] | activity at 40 µM [3] [%] | activity at 10 µM [4] [%] | activity at 40 µM [5] [%] |
| --- | --- | --- | --- | --- | --- |
| O=C(NO)c1ccc(Oc2ccc(C3CCCCC3)cc2)c(F)c1 [Compound 540, 4-(4-cyclohexylphenoxy)-3-fluoro-N-hydroxybenzamide] | 0 to 20 | 0 to 20 | 20 to 40 | 20 to 40 | 0 to 20 |
| CCC(C)(C)c1ccc(Oc2ncc(C(=O)NO)cc2F)cc1 [Compound 633] | 0 to 20 | 0 to 20 | – | – | 20 to 40 |
